From PubChem BioAssay (NCI)
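Following 48 hours of exposure in 96-well plates, responses at five concentrations were used to interpolate endpoints linearly. TGI: total growth inhibition.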

Key:
Assay in all cases: NCI anticancer screen, dose series, 48 h
UACC-62 melanoma = test system: UACC-62 melanoma
HOP-92 NSCLC = test system: HOP-92 NSCLC
SK-MEL-28 melanoma = test system: SK-MEL-28 melanoma
ACHN renal = test system: ACHN renal
COLO 205 colon = test system: COLO 205 colon
CCRF-CEM leukemia = test system: CCRF-CEM leukemia
NCI/ADR-RES ovarian = test system: NCI/ADR-RES ovarian
OVCAR-4 ovarian = test system: OVCAR-4 ovarian
HT29 colon = test system: HT29 colon
OVCAR-3 ovarian = test system: OVCAR-3 ovarian

Row | Compound | TGI (UACC-62 melanoma) | TGI (HOP-92 NSCLC) | TGI (SK-MEL-28 melanoma) | TGI (ACHN renal) | TGI (COLO 205 colon) | TGI (CCRF-CEM leukemia) | TGI (NCI/ADR-RES ovarian) | TGI (OVCAR-4 ovarian) | TGI (HT29 colon) | TGI (OVCAR-3 ovarian)
1 | CCn1nc(-c2ccccc2)c2c1N(C)c1ccccc1-n1c(-c3ccccc3)nnc1-2 | 26.6 µM | 35.9 µM | 33.1 µM | 26.8 µM | 48.5 µM | > 100 µM | 40.3 µM |  |  | 
2 | CN(C)c1ccc(/C=N/n2c(-c3ccccc3)nc3ccccc3c2=O)cc1 | > 100 µM | > 100 µM | > 100 µM | > 100 µM | > 100 µM | > 100 µM | > 100 µM | > 100 µM | > 100 µM | > 100 µM
3 | COC(=O)C1=COC(C)C2C[n+]3ccc4c([nH]c5ccccc54)c3CC12 (configuration not stated) | > 100 µM | > 100 µM | > 100 µM | > 100 µM | > 100 µM | > 100 µM | > 100 µM | > 100 µM | > 100 µM | > 100 µM
4 | CC(=O)OC(CC(C)C)P1(=O)N(CC(C)(C)C)[C@@H]2CCCC[C@H]2N1CC(C)(C)C (some centres not stated) | 23.3 µM | 10.7 µM | 28.6 µM | 19.3 µM | 18.2 µM | > 93.3 µM | 22.6 µM | 23.6 µM | 19 µM | 23.1 µM
5 | O=c1[nH]c(=S)c2cc3c(=S)[nH]c(=O)n(CCC(c4ccccc4)(c4ccccc4)c4ccccc4)c3nc2n1CCC(c1ccccc1)(c1ccccc1)c1ccccc1 | > 100 µM | > 100 µM | > 100 µM | > 100 µM | > 100 µM | 27.7 µM | > 100 µM | > 100 µM |  | > 100 µM
6 | O=c1c2ncn(C3CCCCO3)c2n(-c2ccccc2)c(=S)n1-c1ccccc1 (configuration not stated) | 56.5 µM | 31 µM | > 100 µM | > 100 µM | > 100 µM | > 100 µM | > 82.6 µM | > 87.2 µM | > 100 µM | > 81.3 µM
7 | O=C(O)CS(=O)c1ccc2c3c(cccc13)C(=O)c1ccccc1-2 (configuration not stated) | > 100 µM | > 100 µM | > 100 µM | > 100 µM | > 100 µM | > 100 µM | > 100 µM | > 100 µM | > 100 µM | > 100 µM
8 | COc1cc2c(cc1OC)C1=Cc3ccc(OC)c(OC)c3C(C#N)N1CC2 (configuration not stated) | 45.5 µM |  | > 100 µM | > 100 µM | 43.8 µM | > 100 µM | > 100 µM | > 100 µM | > 100 µM | > 100 µM
9 | O=c1[nH]nc(-c2ccc([N+](=O)[O-])cc2)n1/N=C/c1ccc([N+](=O)[O-])cc1 | > 100 µM | > 100 µM | > 100 µM | > 100 µM | > 100 µM | > 100 µM | > 100 µM | > 100 µM | > 100 µM | > 100 µM
10 | c1ccc2c(c1)nc1n2CCNC1 | > 100 µM | > 100 µM | > 100 µM | > 100 µM | > 100 µM | > 100 µM | > 100 µM | > 100 µM | > 100 µM | > 100 µM
11 | COC(=O)c1c(O)ccc2c1c1c(n2Cc2ccc(OC)cc2)C(=O)c2ccccc2C1=O |  | 25.3 µM | 37.4 µM | 12.6 µM | 3.3 µM | 0.296 µM | 37.2 µM | 35.2 µM | 8.55 µM | 43.9 µM
12 | N#Cc1nc(C(F)(F)F)oc1N | > 100 µM | > 100 µM | > 100 µM | > 100 µM | > 100 µM | > 100 µM | > 100 µM | > 100 µM | > 100 µM | > 100 µM
13 | NNC(=Nc1ccccc1)SCc1ccccc1 | > 100 µM | > 100 µM | > 100 µM | > 100 µM | > 100 µM | > 100 µM | > 100 µM | > 100 µM | > 100 µM | > 100 µM
14 | N#CC(c1nc2ccccc2s1)c1nc(Cl)ncc1Br (configuration not stated) |  | 52 µM | > 100 µM | > 100 µM | > 100 µM |  | > 100 µM | > 100 µM | > 100 µM | 97.7 µM
15 | Cc1cccc(/C=N/NC(=S)N2CCCCCC2)n1 | 1.08 µM | > 89.1 µM | > 100 µM | 1.71 µM | 0.632 µM |  | 0.202 µM |  | > 40 µM | 
16 | CCOC(=O)c1[nH]cnc1/N=N/N(C)N | > 100 µM |  | > 100 µM | > 100 µM | > 100 µM |  | > 100 µM | > 100 µM | > 100 µM | > 100 µM
17 | CC(C)=NNc1cnnc2ccc([N+](=O)[O-])cc12 |  | > 100 µM |  | > 100 µM | > 100 µM | > 100 µM | > 100 µM |  | > 100 µM | 
18 | COc1ccc(C[C@H]2NC(=O)/C=C/C[C@@H]([C@H](C)[C@H]3O[C@@H]3c3ccccc3)OC(=O)[C@H](CC(C)C)OC(=O)[C@H](C)CNC2=O)cc1 | 3.38e-05 µM |  | > 0.0001 µM | > 0.0001 µM | 4.99e-05 µM | > 6.99e-05 µM | > 0.0001 µM | > 0.0001 µM | > 6.54e-05 µM | > 0.0001 µM
19 | OCc1c2c(cc3c1CC1(C3)Cc3cc4c(c(CO)c3C1)CCC4)CCC2 | 32.6 µM | 33.1 µM |  | 22.6 µM | 42.4 µM | 25.9 µM | 37.8 µM | 23.5 µM | 32.4 µM | 28.3 µM
20 | Nc1nc2cc(CNc3ccc(C(=O)O)cc3)ccc2nc1-c1ccccc1 |  |  | > 100 µM | > 100 µM | > 100 µM | > 100 µM | > 100 µM | > 100 µM | > 100 µM | > 100 µM
21 | CN(C)NC1=NS(=O)(=O)c2cc3c(cc2S1)N(N(C)C)C(=O)c1cc2c(cc1N(N(C)C)C3=O)SC(NN(C)C)=NS2(=O)=O |  | > 10 µM | > 10 µM | > 10 µM | > 10 µM | > 10 µM | > 10 µM | > 10 µM | > 10 µM | > 10 µM
22 | CC1=NC2(CCCCC2)N(Cl)C(=O)C1SC#N (configuration not stated) | 27.2 µM |  | 34.9 µM | 31.6 µM | > 100 µM | 12.8 µM | 56.2 µM | 46.2 µM | 46.4 µM | 35.2 µM
